Source: patent US20050120493A1, “Process for exchanging the anions of cationic compounds” (priority 2002, published 2005)

Experiment: solubility in water of the dye salts before and after anion exchange
Format: physicochemical
Conditions: salt form of the cationic dye as given per example

water solubility | SMILES
3.7% | Cn1cc[n+](C)c1N=Nc1ccc(N)cc1.[Cl-]
0.35% | COc1ccc(Nc2ccc(/N=N/c3n(C)cc[n+]3C)cc2)cc1.[Cl-]
less than 0.4% | CCN(CC)c1ccc2nc3ccc(=[N+](CC)CC)cc-3oc2c1
< 0.03% | Cn1cc[n+](C)c1/N=N/c1ccc(NCCCCCCNc2ccc(/N=N/c3n(C)cc[n+]3C)cc2)cc1.[Cl-].[Cl-]
